Data: patent publication US20230167088A1, “1-PYRAZINYLPYRAZOLYL-3-OXYALKYL ACIDS AND THEIR DERIVATIVES, AND THEIR USE FOR CONTROL OF UNDESIRED PLANT GROWTH” (BAYER AKTIENGESELLSCHAFT, priority 2020, published 2023)

What was measured:
ECHCG [1] = assay: Herbicidal pre-emergence action 2b (doubly sown, 1280 g/ha); assay type: in vivo, Echinochloa crus-galli; details: doubly sown pots, dosage 1280 g/ha, visual scoring after about 3 weeks
Procedure, shortened: (§1)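 Compounds were sprayed pre-emergence as wettable powders or emulsion concentrates onto soil covering freshly sown weed seeds, two species per pot. Percent activity was judged by eye roughly 3 weeks later versus untreated plants.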

DIGSA = assay: Herbicidal post-emergence action 1a (greenhouse pots, visual rating); assay type: in vivo, Digitaria sanguinalis; details: rated visually about 3 weeks after treatment, 100% = plants have died, 0% = like control plants
Procedure, shortened: (§2)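 Visual scoring versus untreated plants (100% = plants dead, 0% = as control) followed roughly 3 weeks in the greenhouse after treatment. Plants grown in sandy loam pots had been sprayed on green parts at the one-leaf stage, 2–3 weeks post-sowing, with aqueous WP/EC preparations containing 0.5% additive, 600 l/ha, at 320 and/or 80 g/ha.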

STEME [2] = assay: Herbicidal post-emergence action 1b (twin sowing, 1280 g/ha); assay type: in vivo, Stellaria media; details: dosage 1280 g/ha, visual rating about 3 weeks after treatment
Procedure, shortened: (§3)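 Greenhouse weed pairs (mono- with dicotyledonous) were treated 2–3 weeks after sowing, at one leaf, using an aqueous spray at 600 L/ha carrying 0.5% additive. Percent activity, judged by eye against untreated plants, was recorded roughly 3 weeks post-application.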

POLCO = assay: Herbicidal pre-emergence action 2a (greenhouse pots, visual scoring); assay type: in vivo, Polygonum convolvulus; details: dosage 320 g/ha, visual scoring after about 3 weeks vs untreated controls
Procedure, shortened: (§4)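 Pre-emergence soil-surface spray: WP/EC, 0.5% additive, 600 l/ha water, 320 and/or 80 g/ha. Greenhouse ~3 wk. Visual % damage vs untreated (100% = plants dead, 0% = like control).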

PHBPU = assay: Herbicidal post-emergence action 1a (greenhouse pots, visual rating); assay type: in vivo, Pharbitis purpurea; details: visual rating about 3 weeks after treatment
Procedure, shortened: as §2

SETVI [3] = assay: as above; assay type: in vivo, Setaria viridis; details: rated visually about 3 weeks after treatment, 100% = plants have died, 0% = like control plants
Procedure, shortened: as §2

ALOMY = assay: Herbicidal pre-emergence action 2a (greenhouse pots, visual scoring); assay type: in vivo, Alopecurus myosuroides; details: dosage 320 g/ha, visual scoring after about 3 weeks
Procedure, shortened: as §4

SETVI [4] = assay: as above; assay type: in vivo, Setaria viridis; details: dosage 320 g/ha, visual scoring after about 3 weeks vs untreated controls
Procedure, shortened: as §4

ECHCG [5] = assay: as above; assay type: in vivo, Echinochloa crus-galli; details: dosage 320 g/ha, visual scoring after about 3 weeks
Procedure, shortened: as §4

STEME [6] = assay: Herbicidal pre-emergence action 2b (doubly sown, 1280 g/ha); assay type: in vivo, Stellaria media; details: doubly sown pots, dosage 1280 g/ha, visual scoring after about 3 weeks
Procedure, shortened: as §1

VIOTR [7] = assay: Herbicidal post-emergence action 1a (greenhouse pots, visual rating); assay type: in vivo, Viola tricolor; details: visual rating about 3 weeks after treatment
Procedure, shortened: as §2

MATIN [8] = assay: Herbicidal pre-emergence action 2b (doubly sown, 1280 g/ha); assay type: in vivo, Matricaria inodora; details: doubly sown pots, dosage 1280 g/ha, visual scoring after about 3 weeks
Procedure, shortened: as §1

AMARE = assay: as above; assay type: in vivo, Amaranthus retroflexus; details: doubly sown pots, dosage 1280 g/ha, visual scoring after about 3 weeks
Procedure, shortened: as §1

VERPE [9] = assay: Herbicidal post-emergence action 1a (greenhouse pots, visual rating); assay type: in vivo, Veronica persica; details: visual rating about 3 weeks after treatment
Procedure, shortened: as §2

ECHCG [10] = assay: Herbicidal post-emergence action 1b (twin sowing, 1280 g/ha); assay type: in vivo, Echinochloa crus-galli; details: dosage 1280 g/ha, visual rating about 3 weeks after treatment
Procedure, shortened: as §3

VIOTR [11] = assay: Herbicidal pre-emergence action 2a (greenhouse pots, visual scoring); assay type: in vivo, Viola tricolor; details: dosage 320 g/ha, visual scoring after about 3 weeks vs untreated controls
Procedure, shortened: as §4

AVEFA = assay: as above; assay type: in vivo, Avena fatua; details: dosage 320 g/ha, visual scoring after about 3 weeks
Procedure, shortened: as §4

ECHCG [12] = assay: Herbicidal post-emergence action 1a (greenhouse pots, visual rating); assay type: in vivo, Echinochloa crus-galli; details: rated visually about 3 weeks after treatment, 100% = plants have died, 0% = like control plants
Procedure, shortened: as §2

VERPE [13] = assay: Herbicidal pre-emergence action 2a (greenhouse pots, visual scoring); assay type: in vivo, Veronica persica; details: dosage 320 g/ha, visual scoring after about 3 weeks vs untreated controls
Procedure, shortened: as §4

MATIN [14] = assay: as above; assay type: in vivo, Matricaria inodora; details: dosage 320 g/ha, visual scoring after about 3 weeks vs untreated controls
Procedure, shortened: as §4

Row | Structure (SMILES) | Pre-emergence action at 1280 g/ha against ECHCG in % (ECHCG [1]) [%] | Post-emergence action against DIGSA in % (DIGSA; Dosage 320 g/ha) [%] | Post-emergence action at 1280 g/ha against STEME in % (STEME [2]) [%] | Pre-emergence action against POLCO in % (POLCO) [%] | Post-emergence action against PHBPU in % (PHBPU; dosage 320 g/ha) [%] | Post-emergence action against SETVI in % (SETVI [3]; Dosage 80 g/ha) [%] | Post-emergence action against SETVI in % (SETVI [3]; Dosage 320 g/ha) [%] | Pre-emergence action against ALOMY in % (ALOMY) [%] | Pre-emergence action against SETVI in % (SETVI [4]) [%] | Pre-emergence action against ECHCG in % (ECHCG [5]) [%] | Pre-emergence action at 1280 g/ha against STEME in % (STEME [6]) [%] | Post-emergence action against VIOTR in % (VIOTR [7]; dosage 80 g/ha) [%] | Post-emergence action against VIOTR in % (VIOTR [7]; dosage 320 g/ha) [%] | Pre-emergence action at 1280 g/ha against MATIN in % (MATIN [8]) [%] | Pre-emergence action at 1280 g/ha against AMARE in % (AMARE) [%] | Post-emergence action against VERPE in % (VERPE [9]; dosage 320 g/ha) [%] | Post-emergence action at 1280 g/ha against ECHCG in % (ECHCG [10]) [%] | Pre-emergence action against VIOTR in % (VIOTR [11]) [%] | Pre-emergence action against AVEFA in % (AVEFA) [%] | Pre-emergence action against VERPE in % (VERPE [13]) [%] | further results
1 | COC(=O)[C@@H](C)Oc1nn(-c2cnccn2)c(-c2ccnc(F)c2)c1Br [Example I-34] | 90 | 80 | 100 | 100 | 80 | 80 | 90 | 100 | 100 | 80 | 100 | 90 | 90 | 100 | 100 | 80 | 100 | 100 | 90 |  | 
2 | CCOC(=O)COc1nn(-c2cnccn2)c(-c2ccc(F)nc2)c1Cl [Example I-53] | 100 |  | 100 | 90 |  | 80 |  | 100 | 100 | 100 | 100 | 90 |  | 100 | 100 |  | 100 | 100 | 90 | 90 | Post-emergence action against ECHCG in % (ECHCG [12]; Dosage 80 g/ha): 80%; Post-emergence action against DIGSA in % (DIGSA; Dosage 80 g/ha): 90%; Post-emergence action against PHBPU in % (PHBPU; dosage 80 g/ha): 80%; Pre-emergence action against MATIN in % (MATIN [14]): 100%; Post-emergence action against VERPE in % (VERPE [9]; dosage 80 g/ha): 80%
3 | COC(=O)C(C)Oc1nn(-c2cnccn2)c(-c2ccc(F)nc2)c1Br (racemic) [Example I-12] | 100 | 80 | 100 | 90 | 90 |  | 80 | 100 | 100 |  | 100 | 90 | 100 | 90 | 100 | 90 | 90 | 100 | 90 | 80 | Post-emergence action against ECHCG in % (ECHCG [12]; Dosage 320 g/ha): 80%; Post-emergence action against PHBPU in % (PHBPU; dosage 80 g/ha): 80%; Post-emergence action against VERPE in % (VERPE [9]; dosage 80 g/ha): 80%
4 | COC(=O)[C@@H](C)Oc1nn(-c2cnccn2)c(-c2ccc(F)nc2)c1Cl [Example I-36] | 90 | 90 | 100 | 100 | 90 |  | 100 | 100 | 100 | 100 | 100 | 90 | 90 | 90 | 100 | 90 | 100 | 100 | 100 | 100 | Post-emergence action against DIGSA in % (DIGSA; Dosage 80 g/ha): 80%; Post-emergence action against PHBPU in % (PHBPU; dosage 80 g/ha): 90%; Pre-emergence action against MATIN in % (MATIN [14]): 80%
5 | COC(=O)[C@@H](C)Oc1nn(-c2cnccn2)c(-c2cncc(F)c2)c1Br [Example I-39] | 100 | 90 | 100 | 90 | 90 | 80 | 80 | 100 | 100 | 100 | 100 | 80 | 90 | 100 | 100 | 90 | 100 | 100 | 90 | 100 | Post-emergence action against ECHCG in % (ECHCG [12]; Dosage 80 g/ha): 80%; Post-emergence action against ECHCG in % (ECHCG [12]; Dosage 320 g/ha): 90%; Post-emergence action against DIGSA in % (DIGSA; Dosage 80 g/ha): 80%; Post-emergence action against PHBPU in % (PHBPU; dosage 80 g/ha): 80%; Pre-emergence action against MATIN in % (MATIN [14]): 90%; Post-emergence action against VERPE in % (VERPE [9]; dosage 80 g/ha): 80%
6 | COC(=O)[C@@H](C)Oc1nn(-c2cnccn2)c(-c2cccc(F)c2)c1Br [Example I-20] | 100 | 90 | 100 | 80 | 90 | 80 | 90 | 90 | 100 | 90 | 100 | 80 |  | 100 | 100 | 90 | 100 | 90 | 80 | 100 | Post-emergence action against ECHCG in % (ECHCG [12]; Dosage 320 g/ha): 80%; Post-emergence action against DIGSA in % (DIGSA; Dosage 80 g/ha): 80%; Pre-emergence action against MATIN in % (MATIN [14]): 90%; Post-emergence action against VERPE in % (VERPE [9]; dosage 80 g/ha): 80%
7 | COC(=O)C(C)Oc1nn(-c2cnccn2)c(-c2ccc(F)c(F)c2)c1Br (racemic) [Example I-16] | 100 | 90 | 100 | 90 | 90 | 80 | 90 | 90 | 100 |  | 100 | 80 | 90 | 100 | 100 | 80 | 100 | 100 | 90 | 100 | Post-emergence action against ECHCG in % (ECHCG [12]; Dosage 320 g/ha): 90%; Pre-emergence action against MATIN in % (MATIN [14]): 90%
